Source: patent EP0215063B1, “PYRIDO (2,3-d )PYRIMIDIN DERIVATIVES” (priority 1985, dated 1986)
Values joined by “and” are separate entries in the source; they are usually repeats but may differ in a detail not shown here. Equal entries are not always repeated. Where two headings read alike, the source gives them in different places.

Legend:
[1] = system: mouse L1210 leukemia; conditions: literature; cited from earlier work
[2] = literature (Taylor et al.); cited from earlier work
[3] = literature; cited from earlier work
[4] = target: T1, dihydrofolate reductase (Homo sapiens, UniProt P00374); conditions: literature (De Graw et al.); cited from earlier work
T1 sequence (P00374 1-187): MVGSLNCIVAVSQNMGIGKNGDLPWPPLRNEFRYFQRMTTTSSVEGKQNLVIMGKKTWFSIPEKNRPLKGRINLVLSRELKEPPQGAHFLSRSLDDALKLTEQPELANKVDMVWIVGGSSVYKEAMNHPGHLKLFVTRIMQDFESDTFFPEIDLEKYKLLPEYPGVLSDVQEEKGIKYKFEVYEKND

[5] = target: T2, Dihydrofolate Reductase (DHFR) (Homo sapiens, UniProt P00374); assay: Inhibition of Dihydrofolate Reductase (DHFR); assay type: biochemical
T2 sequence (P00374 1-187): T1 sequence (P00374 1-187)

[6] = target: T3, Folate Polyglutamate Synthetase (Mus musculus, UniProt P48760); assay: Substrate for Folate Polyglutamate Synthetase (partially purified mouse liver FPGS); assay type: biochemical
T3 construct: Incubation with partially purified mouse liver FPGS; from tissue; host or cells: mouse liver
T3 sequence (P48760 43-587): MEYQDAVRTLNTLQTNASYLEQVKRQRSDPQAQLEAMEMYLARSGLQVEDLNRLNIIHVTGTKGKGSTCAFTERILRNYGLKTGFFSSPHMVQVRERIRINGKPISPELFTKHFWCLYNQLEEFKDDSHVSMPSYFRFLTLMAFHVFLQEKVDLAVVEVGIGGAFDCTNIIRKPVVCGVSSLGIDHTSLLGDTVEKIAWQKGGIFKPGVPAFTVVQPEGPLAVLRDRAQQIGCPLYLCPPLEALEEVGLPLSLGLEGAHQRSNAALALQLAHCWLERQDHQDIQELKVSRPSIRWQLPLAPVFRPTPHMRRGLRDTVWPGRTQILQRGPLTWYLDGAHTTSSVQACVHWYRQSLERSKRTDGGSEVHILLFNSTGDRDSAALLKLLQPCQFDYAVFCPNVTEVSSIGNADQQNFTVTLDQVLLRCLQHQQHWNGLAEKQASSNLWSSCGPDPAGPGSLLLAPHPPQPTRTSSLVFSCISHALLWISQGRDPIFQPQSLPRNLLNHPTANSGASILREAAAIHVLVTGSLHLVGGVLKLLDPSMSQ

[7] = system: L1210 murine leukemic cells; assay: Inhibition of L1210 murine leukemic cells in tissue culture; assay type: cell-based; conditions: Mus musculus, read-out: IC₅₀
[8] = system: L-1210 leukemia; assay: Increase in life span, % ILS (Table 5, title only as image); assay type: in vivo
[9] = system: Methotrexate-Resistant L-1210 Leukemia; assay: Effect on Methotrexate-Resistant L-1210 Leukemia; assay type: in vivo; conditions: for Mean Increased Life span in days: in vivo
[10] = system: X5563 Plasma Cell Myeloma; conditions: mouse, in vivo
[11] = system: 6C3HED Lymphosarcoma; assay: Subcutaneous tumor growth inhibition in mice; conditions: mouse, in vivo
[12] = system: B-16; assay: Subcutaneous tumor growth inhibition in mice; conditions: mouse, in vivo
[13] = system: C3H Mammary Adenocarcinoma; assay: Subcutaneous tumor growth inhibition in mice; conditions: mouse, in vivo
[14] = system: Lewis Lung Carcinoma; assay: Subcutaneous tumor growth inhibition in mice; conditions: mouse, in vivo
[15] = system: Madison Lung; assay: Subcutaneous tumor growth inhibition in mice; conditions: mouse, in vivo
[16] = target: T3, Folate Polyglutamate Synthetase; conditions: relative to folic acid; published data (Moran et al.); cited from earlier work
[17] = relative to folic acid, one hour at 37°C

For `Nc1nc(N)c2cc(CCc3ccc(C(=O)N[C@@H](CCC(=O)O)C(=O)O)cc3)ccc2n1` [5,8,10-trideazaaminopterin], the “activity against mouse L1210 leukemia (in words)” value [1] is given as “exhibits activity”.
For `Nc1nc2ccc(CCc3ccc(C(=O)N[C@@H](CCC(=O)O)C(=O)O)cc3)cc2c(=O)[nH]1` [5,8,10-trideazafolic acid], the “activity against mouse L1210 leukemia (in words)” value [1] is listed as “only marginal activity”.
For `Nc1nc2ncc(CNc3ccc(C(=O)N[C@@H](CCC(=O)O)C(=O)O)cc3)cc2c(=O)[nH]1` [5-Deazafolic acid], the “cytotoxicity (in words)” value [2] is listed as “only weakly cytotoxic”.
For `Nc1nc(N)c2nc(CCc3ccc(C(=O)N[C@@H](CCC(=O)O)C(=O)O)cc3)ccc2n1` [8,10-Dideazaaminopterin], the “antimetabolic activity (in words)” value [3] is given as “active”.
In the case of `Nc1nc2ccc(CCc3ccc(C(=O)N[C@@H](CCC(=O)O)C(=O)O)cc3)nc2c(=O)[nH]1` [8,10-Dideazafolic acid], the “effectiveness as a dihydrofolate reductase inhibitor (in words)” value [4] is listed as “only marginally effective”.
In the case of `Nc1nc(N)c2nc(CCc3ccc(C(=O)N[C@@H](CCC(=O)O)C(=O)O)cc3)cnc2n1` [10-Deaza-aminopterin], the “antimetabolic activity (in words)” value [3] is listed as “highly active”.
In the case of `Nc1nc2ncc(CCc3ccc(C(=O)N[C@@H](CCC(=O)O)C(=O)O)cc3)nc2c(=O)[nH]1` [10-deazafolic acid], the “antimetabolic activity (in words)” value [3] is given as “no significant activity”.
With `Nc1nc(N)c2cc(CCc3ccc(C(=O)N[C@@H](CCC(=O)O)C(=O)O)cc3)cnc2n1` [Compound 1, N-(4-[2(2,4-diaminopyrido[2,3-d]-pyrimidin-6-yl)ethyl]benzoyl)-L-glutamic acid] the IC50 [5] was 0.043 µM, the “Rel Vmax” value [6, 17] was 0.35 ± 0.02 and the IC50 [7] was 0.017 µM. For the same molecule, the “% ILS” value ([8]; dose 4 mg/kg) was 130%.
For `Nc1nc(O)c2cc(CCc3ccc(C(=O)N[C@@H](CCC(=O)O)C(=O)O)cc3)cnc2n1` [Compound 2, N-(4-[2-(2-amino-4-hydroxypyrido[2,3-d]pyrimidin-6-yl)ethyl]benzoyl)-L-glutamic acid], the IC50 [5] was 49 µM, the “Rel Vmax” value [6, 17] was 0.90 ± 0.10 and the IC50 [7] was over 100 µM.
For `Nc1nc(N)c2c(n1)NCC(CCc1ccc(C(=O)N[C@@H](CCC(=O)O)C(=O)O)cc1)C2` (stereo partly drawn) [Compound 3, N-(4-[2-(2,4-diamino-5,6,7,8-tetrahydropyrido[2,3-d]pyrimidin-6-yl)ethyl]benzoyl)-L-glutamic acid], the IC50 [5] was 0.071 µM, the “Rel Vmax” value [6, 17] was 1.61 ± 0.05 and the IC50 [7] was 0.0033 µM. The “% ILS” value ([8]; dose 1 mg/kg) was 111%.
In the case of `Nc1nc2c(c(=O)[nH]1)CC(CCc1ccc(C(=O)N[C@@H](CCC(=O)O)C(=O)O)cc1)CN2` (stereo partly drawn) [Compound 4, N-(4-[2-(2-amino-4-hydroxy-5,6,7,8-tetrahydropyrido[2,3-d]pyrimidin-6-yl)ethyl]benzoyl)-L-glutamic acid], the “inhibition of dihydrofolate reductase (in words)” value [5] is reported as “weak inhibitor”, the “Rel Vmax” value [6] is reported as 1.24 ± 0.10 and the “activity against L-1210 leukemia (in words)” value ([8]; in vivo) is reported as “good activity”. For the same molecule, the “% ILS” value ([8]; in vivo, 2 mg/kg) was 27%, the “% ILS” value ([8]; in vivo, 4 mg/kg) was 35% and the “% ILS” value ([8]; in vivo, 8 mg/kg) was 59%. The “% ILS” value ([8]; in vivo, 12 mg/kg) was 63%, the “Mean Increased Life span in days” value ([9]; 2 mg/kg) was “+8 days” and the “Mean Increased Life span in days” value ([9]; 4 mg/kg) was “+11 days”. For the same molecule, the “Mean Increased Life span in days” value ([9]; 8 mg/kg) was “+17 days”, the “Mean Increased Life span in days” value ([9]; 12 mg/kg) was “+25 days” and the “% INHIBITION” value [10] was 100%. For the same molecule, the “toxicity (footnote)” value [10] was “† Toxic”, the “% INHIBITION” value [11] was 91% and 100% and the “% INHIBITION” value [12] was 98% and 99% and 100%. The “% INHIBITION” value [13] was 86% and 100%, the “% INHIBITION” value [14] was 58% and 77% and 94% and 100% and the “% INHIBITION” value [15] was 54% and 72% and 87% and 90%.
In the case of `Nc1nc2c(c(=O)[nH]1)NC(CNc1ccc(C(=O)N[C@@H](CCC(=O)O)C(=O)O)cc1)CN2` (some centres unmarked) [FH4], the “Rel Vmax” value [16] is listed as 1.31 ± 0.07.
With `CN(Cc1cnc2nc(N)nc(N)c2n1)c1ccc(C(=O)N[C@@H](CCC(=O)O)C(=O)O)cc1` [Methotrexate, methotrexate, reference compound] the “Mean Increased Life span” value ([9]; dose 2 mg/kg) was 0 days.
